Source: PMC3222276 (ACS chemical biology, 2010)

How the values were obtained:
cathepsin B = cathepsin B (Homo sapiens, UniProt P07858); assay: Inhibition of recombinant cathepsin B; details: read-out: Cathepsin B IC50; enzyme 360nM, substrate 50μM, pH 6.25, 30min
cathepsin L = cathepsin L (Homo sapiens, UniProt P07711); assay: Inhibition of recombinant cathepsin L; details: read-out: Cathepsin L IC50; enzyme 100nM, substrate 10μM, pH 6.25, 30min
Sequence of cathepsin L (P07711 114-333, species assumed): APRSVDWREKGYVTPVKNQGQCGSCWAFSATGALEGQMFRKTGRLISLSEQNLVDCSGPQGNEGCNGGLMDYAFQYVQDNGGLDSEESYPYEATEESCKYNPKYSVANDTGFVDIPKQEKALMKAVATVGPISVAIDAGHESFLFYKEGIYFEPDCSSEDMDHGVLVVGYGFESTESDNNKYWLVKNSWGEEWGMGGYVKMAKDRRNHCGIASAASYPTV

IC50 (cathepsin B): 0.78 µM
IC50 (cathepsin L): 2.98 µM
Substance: JPM-OEt
